# Experimental data from ChEMBL document CHEMBL1201862, “PubChem BioAssay data set” (2004).
#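 Following 48 hours of exposure in 96-well plates, responses at five concentrations were used to interpolate endpoints linearly. The concentration for 50% growth inhibition is given as GI50.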 Active and inactive are the calls of the source. Rule as the data show it: active = GI50 up to about 1.1 µM and inactive = higher.
# Experiments:
# Test in all cases: NCI tumour cell line growth inhibition, 48 h
# 786-0 = tested on: 786-0
# A498 = tested on: A498
# A549 = tested on: A549
# ACHN = tested on: ACHN
# BT-549 = tested on: BT-549
# CAKI-1 = tested on: CAKI-1
# CCRF-CEM = tested on: CCRF-CEM
# COLO 205 = tested on: COLO 205
# DU-145 = tested on: DU-145
# EKVX = tested on: EKVX
# HCC 2998 = tested on: HCC 2998
# HCT-116 = tested on: HCT-116
# HCT-15 = tested on: HCT-15
# HOP-92 = tested on: HOP-92
# HT-29 = tested on: HT-29
# Hs-578T = tested on: Hs-578T
# IGROV-1 = tested on: IGROV-1
# K562 = tested on: K562
# KM12 = tested on: KM12
# LOX IMVI = tested on: LOX IMVI
# M14 = tested on: M14
# MCF7 = tested on: MCF7
# MDA-MB-231 = tested on: MDA-MB-231
# MDA-MB-435 = tested on: MDA-MB-435
# MDA-N = tested on: MDA-N
# MOLT-4 = tested on: MOLT-4
# Malme-3M = tested on: Malme-3M
# NCI-H226 = tested on: NCI-H226
# NCI-H23 = tested on: NCI-H23
# NCI-H460 = tested on: NCI-H460
# NCI-H522 = tested on: NCI-H522
# NCI/ADR-RES = tested on: NCI/ADR-RES
# OVCAR-3 = tested on: OVCAR-3
# OVCAR-4 = tested on: OVCAR-4
# OVCAR-5 = tested on: OVCAR-5
# OVCAR-8 = tested on: OVCAR-8
# PC-3 = tested on: PC-3
# RPMI-8226 = tested on: RPMI-8226
# SF-268 = tested on: SF-268
# SF-539 = tested on: SF-539
# SK-MEL-28 = tested on: SK-MEL-28
# SK-MEL-2 = tested on: SK-MEL-2
# SK-MEL-5 = tested on: SK-MEL-5
# SK-OV-3 = tested on: SK-OV-3
# SN12C = tested on: SN12C
# SNB-19 = tested on: SNB-19
# SNB-75 = tested on: SNB-75
# T47D = tested on: T47D
# TK-10 = tested on: TK-10
# U-251 = tested on: U-251
# UACC-257 = tested on: UACC-257
# UACC-62 = tested on: UACC-62
# UO-31 = tested on: UO-31
compound,measurement,setting,value
CCOC(=O)CCC(NC(=O)c1ccc(N2CCN(c3c(C)nc(N)nc3N)CC2)cc1)C(=O)OCC (stereo not drawn),GI50,786-0,0.0929 µM (active)
same,GI50,A498,65.2 µM (inactive)
same,GI50,A549,0.213 µM (active)
same,GI50,ACHN,0.122 µM (active)
same,GI50,BT-549,> 100 µM (inactive)
same,GI50,CAKI-1,2.52 µM (inactive)
same,GI50,CCRF-CEM,0.109 µM (active)
same,GI50,COLO 205,> 64.1 µM (inactive)
same,GI50,DU-145,> 100 µM (inactive)
same,GI50,EKVX,> 78.2 µM (inactive)
same,GI50,HCC 2998,10.6 µM (inactive)
same,GI50,HCT-116,0.0527 µM (active)
same,GI50,HCT-15,3.36 µM
same,GI50,HOP-92,48.6 µM (inactive)
same,GI50,HT-29,3.15 µM (inactive)
same,GI50,Hs-578T,> 100 µM (inactive)
same,GI50,IGROV-1,0.113 µM (active)
same,GI50,K562,< 0.01 µM (active)
same,GI50,KM12,1.43 µM (inactive)
same,GI50,LOX IMVI,0.513 µM (active)
same,GI50,M14,1.32 µM (inactive)
same,GI50,MCF7,0.685 µM (active)
same,GI50,MDA-MB-231,> 100 µM (inactive)
same,GI50,MDA-MB-435,0.251 µM (active)
same,GI50,MDA-N,12.9 µM (inactive)
same,GI50,MOLT-4,0.186 µM (active)
same,GI50,Malme-3M,> 100 µM (inactive)
same,GI50,NCI-H226,0.902 µM (active)
same,GI50,NCI-H23,0.169 µM (active)
same,GI50,NCI-H460,6.53 µM (inactive)
same,GI50,NCI-H522,11 µM (inactive)
same,GI50,NCI/ADR-RES,7.43 µM (inactive)
same,GI50,OVCAR-3,> 21.2 µM (inactive)
same,GI50,OVCAR-4,> 100 µM (inactive)
same,GI50,OVCAR-5,> 100 µM (inactive)
same,GI50,OVCAR-8,0.452 µM (active)
same,GI50,PC-3,0.0398 µM (active)
same,GI50,RPMI-8226,1.76 µM (inactive)
same,GI50,SF-268,0.757 µM (active)
same,GI50,SF-539,16.2 µM (inactive)
same,GI50,SK-MEL-28,> 31.6 µM (inactive)
same,GI50,SK-MEL-2,> 100 µM (inactive)
same,GI50,SK-MEL-5,0.0923 µM (active)
same,GI50,SK-OV-3,> 100 µM (inactive)
same,GI50,SN12C,> 22.5 µM (inactive)
same,GI50,SNB-19,0.514 µM (active)
same,GI50,SNB-75,> 37.1 µM (inactive)
same,GI50,T47D,> 88.9 µM (inactive)
same,GI50,TK-10,> 100 µM (inactive)
same,GI50,U-251,0.0845 µM (active)
same,GI50,UACC-257,15.6 µM (inactive)
same,GI50,UACC-62,0.165 µM (active)
same,GI50,UO-31,> 100 µM (inactive)
